Measurements from PubChem BioAssay AID264 (DTP/NCI, 2004).
Where “and” joins values, the source holds several entries; their conditions need not be identical. Identical values can stand only once. Results filed as inconclusive are left out.

Tested on: nude mice, LX-1 lung xenograft intrarenal, tumor weight T/C
Experiment: NCI In Vivo Anticancer Drug Screen. Data for tumor model Human Lung LX-1 Xenograft (intrarenal inoculation) in NU/NU Swiss (nude) mice
Details: endpoint: mean tumor weight change, higher = larger tumour
Protocol: The antitumor activity of compounds was measured in mice bearing transplantable tumors. Survival or tumor size were measured and the results are expressed as the measurement made in the treated group (T) divided by the measurement made in the vehicle treated control group (C). The tumor model used in this assay is Human Lung LX-1 Xenograft (intrarenal inoculation) in NU/NU Swiss (nude) mice

[1] = dose: 50.0 mg/kg/injection, schedule: Q04DX003 (sc), vehicle: saline with Tween-80
[2] = dose: 100.0 mg/kg/injection, schedule: Q04DX003 (sc), vehicle: saline with Tween-80
[3] = dose: 200.0 mg/kg/injection, schedule: Q04DX003 (sc), vehicle: saline with Tween-80
[4] = dose: 75.0 mg/kg/injection, schedule: Q04DX003 (sc), vehicle: saline with Tween-80
[5] = dose: 150.0 mg/kg/injection, schedule: Q04DX003 (sc), vehicle: saline with Tween-80
[6] = dose: 300.0 mg/kg/injection, schedule: Q04DX003 (sc), vehicle: saline with Tween-80
[7] = dose: 200.0 mg/kg/injection, schedule: Q01DX010 (sc), vehicle: saline with Tween-80
[8] = dose: 400.0 mg/kg/injection, schedule: Q01DX010 (sc), vehicle: saline with Tween-80
[9] = dose: 600.0 mg/kg/injection, schedule: Q04DX003 (sc), vehicle: saline with Tween-80
[10] = dose: 1200.0 mg/kg/injection, schedule: Q04DX003 (sc), vehicle: saline with Tween-80
[11] = dose: 400.0 mg/kg/injection, schedule: Q04DX003 (sc), vehicle: saline with Tween-80
[12] = dose: 9.38 mg/kg/injection, schedule: Q04DX003 (sc), vehicle: Klucel (hydroxypropylcellulose) (HPC)
[13] = dose: 18.75 mg/kg/injection, schedule: Q04DX003 (sc), vehicle: Klucel (hydroxypropylcellulose) (HPC)
[14] = dose: 50.0 mg/kg/injection, schedule: Q01DX010 (sc), vehicle: saline with Tween-80

CC(/C=N/N=C(N)N)=N\N=C(N)N
T/C (dose: 12.5 mg/kg/injection, schedule: Q01DX010 (sc), vehicle: water): 81 % of control
T/C (dose: 25.0 mg/kg/injection, schedule: Q01DX010 (sc), vehicle: water): 78 % of control
T/C (dose: 100.0 mg/kg/injection, schedule: Q01DX010 (sc), vehicle: water): 58 % of control

BrC1CC(Br)c2c1c1c(c3c2C(Br)CC3Br)C(Br)CC1Br (configuration not stated)
T/C (dose: 300.0 mg/kg/injection, schedule: Q04DX003 (sc), vehicle: water): 46 % of control
T/C (dose: 600.0 mg/kg/injection, schedule: Q04DX003 (sc), vehicle: water): 43 % of control
T/C (dose: 1200.0 mg/kg/injection, schedule: Q04DX003 (sc), vehicle: water): 29 % of control
T/C (dose: 2400.0 mg/kg/injection, schedule: Q04DX003 (sc), vehicle: water): 29 % of control

CC(=O)N(C)c1ccc(Nc2cc(C)[nH]c3ccc4ncnc4c23)cc1
T/C [1]: 101 % of control
T/C [2]: 71 % of control
T/C [3]: 56 % of control

COC1=CC(=O)C(OC)=C(OC)C1=O
T/C (dose: 38.0 mg/kg/injection, schedule: Q04DX003 (sc), vehicle: saline with Tween-80): 122 % of control
T/C [4]: 72 % of control
T/C [5]: 104 % of control
T/C [6]: 122 % of control

CCCCCCCCCCCCSC1=C(Cl)C(=O)C(OC)=C(OC)C1=O
T/C [4]: 71 % of control
T/C [5]: 81 % of control

O=C1c2cccc3cc([N+](=O)[O-])cc(c23)C(=O)N1CCN1CCCC1
T/C (dose: 9.0 mg/kg/injection, schedule: Q04DX003 (sc), vehicle: saline with Tween-80): 104 % of control
T/C (dose: 18.0 mg/kg/injection, schedule: Q04DX003 (sc), vehicle: saline with Tween-80): 75 % of control
T/C (dose: 36.0 mg/kg/injection, schedule: Q04DX003 (sc), vehicle: saline with Tween-80): 74 % of control
T/C (dose: 72.0 mg/kg/injection, schedule: Q04DX003 (sc), vehicle: saline with Tween-80): 76 % of control

CCCCCC(O)C1C(=O)OC(C)C(O)/C=C/C=C/C=C/C=C\C=C(\C)C(O)CC(O)CC(O)CC(O)CC(O)CC(O)CC1O (configuration not stated)
T/C (dose: 150.0 mg/kg/injection, schedule: Q04DX003 (sc), vehicle: distilled water + alcohol): 107 % of control
T/C (dose: 300.0 mg/kg/injection, schedule: Q04DX003 (sc), vehicle: distilled water + alcohol): 117 % of control
T/C (dose: 600.0 mg/kg/injection, schedule: Q04DX003 (sc), vehicle: distilled water + alcohol): 98 % of control
T/C (dose: 1200.0 mg/kg/injection, schedule: Q04DX003 (sc), vehicle: distilled water + alcohol): 105 % of control

CCN1C=C/C(=C\C=C/c2cc[n+](CC)c3ccccc23)c2ccccc21
T/C (dose: 0.25 mg/kg/injection, schedule: Q01DX010 (sc), vehicle: saline): 195 % of control

COC1C(O)CC(OC2CC(Oc3cc4cc5c(c(O)c4c(O)c3C)C(=O)[C@@H](OC3CC(OC4CC(OC6CC(C)(O)C(OC(C)=O)C(C)O6)C(O)C(C)O4)C(O)C(C)O3)[C@H]([C@H](OC)C(=O)[C@@H](O)[C@@H](C)O)C5)OC(C)C2OC(C)=O)OC1C (some centres not stated)
T/C (dose: 0.3 mg/kg/injection, schedule: Q04DX003 (sc), vehicle: Klucel (hydroxypropylcellulose) (HPC)): 87 % of control
T/C (dose: 0.6 mg/kg/injection, schedule: Q04DX003 (sc), vehicle: Klucel (hydroxypropylcellulose) (HPC)): 68 % of control
T/C (dose: 1.2 mg/kg/injection, schedule: Q04DX003 (sc), vehicle: Klucel (hydroxypropylcellulose) (HPC)): 36 % of control

CC(=O)CC(C)=O.CC(=O)CC(C)=O.O=N[O-].O=N[O-].[Co]
T/C [4]: 114 % of control

C/C(=N/NC(N)=S)c1ccc2ccccc2c1
T/C (dose: 12.5 mg/kg/injection, schedule: Q01DX010 (sc), vehicle: saline with Tween-80): 63 % of control
T/C (dose: 25.0 mg/kg/injection, schedule: Q01DX010 (sc), vehicle: saline with Tween-80): 42 % of control
T/C [7]: 61 % of control
T/C [8]: 39 % of control

O=CC(O)C(O)C(O)C(O)C(=O)O.[NH-]C1CCCCC1[NH-].[Pt+2] (configuration not stated)
T/C (dose: 9.38 mg/kg/injection, schedule: Q04DX003 (sc), vehicle: suspension in saline): 39 % of control
T/C (dose: 18.75 mg/kg/injection, schedule: Q04DX003 (sc), vehicle: suspension in saline): 46 % of control

CC1(C)OCC(CO)(Nc2nc(N3CC3)nc(N3CC3)n2)CO1
T/C (dose: 1.25 mg/kg/injection, schedule: Q01DX010 (sc), vehicle: saline): 74 % of control

CCC(CC)COC(=O)c1ccccc1C(=O)OCC(CC)CC
T/C [6]: 56 % of control
T/C [9]: 71 % of control
T/C [10]: 64 % of control
T/C (dose: 2400.0 mg/kg/injection, schedule: Q04DX003 (sc), vehicle: saline with Tween-80): 73 % of control

CO[C@@]12[C@H](COC(N)=O)C3=C(C(=O)C(C)=C(N)C3=O)N1C[C@@H]1N[C@@H]12
T/C (dose: 0.63 mg/kg/injection, schedule: Q04DX003 (sc), vehicle: saline): 98 % of control
T/C (dose: 1.25 mg/kg/injection, schedule: Q04DX003 (sc), vehicle: saline): 32 % of control and 40 % of control and 42 % of control
T/C (dose: 1.5 mg/kg/injection, schedule: Q04DX003 (sc), vehicle: saline): 42 % of control
T/C (dose: 3.0 mg/kg/injection, schedule: Q04DX003 (sc), vehicle: saline): 14 % of control and 16 % of control (2×)
T/C (dose: 3.0 mg/kg/injection, schedule: Q04DX003 (sc), vehicle: suspension in saline): 3 % of control
T/C (dose: 6.0 mg/kg/injection, schedule: Q04DX003 (sc), vehicle: suspension in saline): -55 % of control
T/C (dose: 12.0 mg/kg/injection, schedule: Q04DX003 (sc), vehicle: saline): -76 % of control

COc1ccc(C(=O)c2no[n+]([O-])c2C(=O)c2ccc(OC)cc2)cc1
T/C [2]: 84 % of control
T/C [3]: 91 % of control
T/C [11]: 99 % of control
T/C (dose: 800.0 mg/kg/injection, schedule: Q04DX003 (sc), vehicle: saline with Tween-80): 109 % of control

NC(=S)N/N=C/c1ccc(OC(=O)COc2ccccc2)cn1
T/C [6]: 77 % of control
T/C [9]: 73 % of control
T/C [10]: 37 % of control

C1CCC2OCCOCCOC3CCCCC3OCCOCCOC2C1 (configuration not stated)
T/C [12]: 170 % of control
T/C [13]: 159 % of control

CN(C)c1ccc2c(N(C)C)cc(N(C)C)nc2c1
T/C [12]: 102 % of control
T/C [13]: 123 % of control
T/C (dose: 37.5 mg/kg/injection, schedule: Q04DX003 (sc), vehicle: Klucel (hydroxypropylcellulose) (HPC)): 96 % of control
T/C (dose: 75.0 mg/kg/injection, schedule: Q04DX003 (sc), vehicle: Klucel (hydroxypropylcellulose) (HPC)): 154 % of control

O=C1N(Cl)C(=O)C(c2ccc(Cl)cc2)(c2ccc(Cl)cc2)N1Cl
T/C [14]: 98 % of control
T/C [7]: 57 % of control
T/C [8]: 118 % of control

Nc1cc2c3c(cccc3c1)C(=O)N(CCN1CCCC1)C2=O
T/C [1]: 42 % of control
T/C [2]: 79 % of control
T/C [3]: 108 % of control
T/C [11]: 46 % of control

O=Cc1ccc(C(Cl)(Cl)Cl)cc1
T/C [14]: 176 % of control
T/C [7]: 179 % of control
T/C (dose: 800.0 mg/kg/injection, schedule: Q01DX010 (sc), vehicle: saline with Tween-80): 77 % of control

COc1cc2c(c(OC)c1OC)-c1c(cc3c(c1OC)OCO3)CC(C)C(C)(O)C2OC(=O)c1ccccc1 (configuration not stated)
T/C (dose: 300.0 mg/kg/injection, schedule: Q04DX003 (sc), vehicle: saline + alcohol): 65 % of control
T/C (dose: 600.0 mg/kg/injection, schedule: Q04DX003 (sc), vehicle: saline + alcohol): 107 % of control
T/C (dose: 1200.0 mg/kg/injection, schedule: Q04DX003 (sc), vehicle: saline + alcohol): 108 % of control
T/C (dose: 2400.0 mg/kg/injection, schedule: Q04DX003 (sc), vehicle: saline + alcohol): 77 % of control

CCCC(=O)Oc1ccc(/C=N/NC(N)=S)nc1
T/C [14]: 91 % of control
T/C (dose: 100.0 mg/kg/injection, schedule: Q01DX010 (sc), vehicle: saline with Tween-80): 110 % of control
T/C [7]: 40 % of control
T/C [8]: 15 % of control

Cc1cc(NCCN(C(C)C)C(C)C)nc(/N=C(\N)Nc2ccc(Cl)c(C(F)(F)F)c2)n1
T/C (dose: 40.0 mg/kg/injection, schedule: Q04DX003 (sc), vehicle: Klucel (hydroxypropylcellulose) (HPC)): 45 % of control
T/C (dose: 80.0 mg/kg/injection, schedule: Q04DX003 (sc), vehicle: Klucel (hydroxypropylcellulose) (HPC)): 60 % of control
T/C (dose: 160.0 mg/kg/injection, schedule: Q04DX003 (sc), vehicle: Klucel (hydroxypropylcellulose) (HPC)): 46 % of control
T/C (dose: 320.0 mg/kg/injection, schedule: Q04DX003 (sc), vehicle: Klucel (hydroxypropylcellulose) (HPC)): 62 % of control
